Experimental data taken from patent US7435837B2, “Dihydrobenzofuranyl alkanamine derivatives and methods for using same” (Wyeth, priority 2003, dated 2008).

Target: T1, human 5-HT2C receptor (Homo sapiens, UniProt P28335)
T1 sequence (P28335 33-458): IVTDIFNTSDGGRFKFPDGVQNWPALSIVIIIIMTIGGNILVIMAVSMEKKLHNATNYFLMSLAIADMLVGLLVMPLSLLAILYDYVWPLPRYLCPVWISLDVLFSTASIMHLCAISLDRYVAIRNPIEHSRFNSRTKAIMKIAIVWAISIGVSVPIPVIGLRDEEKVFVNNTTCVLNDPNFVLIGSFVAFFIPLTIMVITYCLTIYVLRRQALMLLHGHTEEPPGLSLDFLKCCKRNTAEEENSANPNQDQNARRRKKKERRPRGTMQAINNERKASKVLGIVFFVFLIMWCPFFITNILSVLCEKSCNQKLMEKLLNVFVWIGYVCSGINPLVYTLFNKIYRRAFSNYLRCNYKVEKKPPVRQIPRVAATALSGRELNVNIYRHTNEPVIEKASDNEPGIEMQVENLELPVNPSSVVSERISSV
Test: 5-HT2C receptor-stimulated calcium mobilization (FLIPR) in CHO cells;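 also: Fluo-3-AM fluorescence read on FLIPR every 1 s, agonist added after 10 baseline reads, response taken as peak minus lowest raw fluorescence count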
Type: cell-based
Details: for Emax: CHO, read-out: 5-HT2C Function Emax (%); for Emax / 5-HT2C Function Emax (%): percentage of the response observed with a maximally effective concentration of 5-HT; for EC50: calcium mobilization, CHO cells stably expressing human 5-HT2C, read-out: 5-HT2C Function EC50

Structure (SMILES)	Emax [%]	EC50 [nM]	5-HT2C Function Emax (%)
CNCC1Cc2cccc(-c3cc(C)ccc3C)c2O1 (racemic) [Example 427, (±)-[(N-methyl-1-[7-(2,5-dimethylphenyl)-2,3-dihydro-1-benzofuran-2-yl]methanamine]	80	298	–
CNCC1Cc2cccc(-c3cc(F)ccc3F)c2O1 (racemic) [Example 428, (±)-[(N-methyl-1-[7-(2,5-difluorophenyl)-2,3-dihydro-1-benzofuran-2-yl]methanamine]	80	69	–
CNCC1Cc2cccc(-c3cc(Cl)ccc3OC)c2O1 (racemic) [Example 430, (±)-[(N-methyl-1-[7-(5-chloro-2-methoxyphenyl)-2,3-dihydro-1-benzofuran-2-yl]methanamine]	80	448	–
CNCC1Cc2cccc(-c3cc(Cl)ccc3C)c2O1 (racemic) [Example 431, (±)-[(N-methyl-1-[7-(5-chloro-2-methylphenyl)-2,3-dihydro-1-benzofuran-2-yl]methanamine]	90	63	–
CNCC1Cc2cccc(-c3c(C)cccc3C)c2O1 (racemic) [Example 432, (±)-[(N-methyl-1-[7-(2,6-dimethylphenyl)-2,3-dihydro-1-benzofuran-2-yl]methanamine]	80	72	–
CNCC1Cc2cccc(-c3cccnc3)c2O1 (racemic) [Example 436, (±)-N-methyl-1-(7-pyridin-3-yl-2,3-dihydro-1-benzofuran-2-yl)methanamine]	90	55	–
CNCC1Cc2cccc(-c3cccc(F)c3F)c2O1 (racemic) [Example 437, (±)-[(N-methyl-1-[7-(2,3-difluorophenyl)-2,3-dihydro-1-benzofuran-2-yl]methanamine]	80	30	–
CNCC1Cc2cc(F)cc(-c3cccc(OC)c3OC)c2O1 (racemic) [Example 444, (±)-{[7-(2,3-dimethoxyphenyl)-5-fluoro-2,3-dihydro-1-benzofuran-2-yl]methyl}methylamine]	80	37	–
CNCC1Cc2cc(F)cc(-c3c(C)cccc3C)c2O1 (racemic) [Example 453, (±)-{[7-(2,6-dimethylphenyl)-5-fluoro-2,3-dihydro-1-benzofuran-2-yl]methyl}methylamine]	80	24	–
CNCC1Cc2cc(Cl)cc(-c3ccccc3OC)c2O1 (racemic) [Example 460, (±)-[(5-chloro-7-(2-methoxyphenyl)-2,3-dihydro-1-benzofuran-2-yl]methyl}methylamine]	90	215	–
CNCC1Cc2cc(Cl)cc(-c3c(C)cccc3C)c2O1 (racemic) [Example 461, (±)-{[5-chloro-7-(2,6-dimethylphenyl)-2,3-dihydro-1-benzofuran-2-yl]methyl}methylamine]	80	34	–
CNCC1Cc2cc(Cl)cc(-c3ccccc3F)c2O1 (racemic) [Example 462, (±)-[(5-chloro-7-(2-fluorophenyl)-2,3-dihydro-1-benzofuran-2-yl]methyl}methylamine]	80	79	–
CNCC1Cc2cc(Cl)cc(-c3cccc(Cl)c3Cl)c2O1 (racemic) [Example 464, (±)-{[5-chloro-7-(2,3-dichlorophenyl)-2,3-dihydro-1-benzofuran-2-yl]methyl}methylamine]	70	462	–
CNCC1Cc2cc(Cl)cc(-c3cccc(C)c3C)c2O1 (racemic) [Example 465, (±)-{[5-chloro-7-(2,3-dimethylphenyl)-2,3-dihydro-1-benzofuran-2-yl]methyl}methylamine]	60	496	–
CNCC1Cc2cc(Cl)cc(-c3cccc(OC)c3OC)c2O1 (racemic) [Example 466, (±)-{[5-chloro-7-(2,3-dimethoxyphenyl)-2,3-dihydro-1-benzofuran-2-yl]methyl}methylamine]	70	55	–
CNCC1Cc2cc(Cl)cc(-c3ccc(F)cc3F)c2O1 (racemic) [Example 467, (±)-{[5-chloro-7-(2,4-difluorophenyl)-2,3-dihydro-1-benzofuran-2-yl]methyl}methylamine]	80	257	–
CNCC1Cc2cc(Cl)cc(-c3ccc(Cl)cc3Cl)c2O1 (racemic) [Example 468, (±)-{[5-chloro-7-(2,4-dichlorophenyl)-2,3-dihydro-1-benzofuran-2-yl]methyl}methylamine]	80	73	–

Structure (SMILES)	Emax [%]	EC50 [nM]	5-HT2C Function Emax (%)
CNCC1Cc2cc(Cl)cc(-c3ccc(OC)cc3OC)c2O1 (racemic) [Example 469, (±)-{[5-chloro-7-(2,4-dimethoxyphenyl)-2,3-dihydro-1-benzofuran-2-yl]methyl}methylamine]	80	21	–
CNCC1Cc2cc(Cl)cc(-c3cc(F)ccc3F)c2O1 (racemic) [Example 470, (±)-{[5-chloro-7-(2,5-difluorophenyl)-2,3-dihydro-1-benzofuran-2-yl]methyl}methylamine]	70	289	–
CNCC1Cc2cc(Cl)cc(-c3cc(Cl)ccc3Cl)c2O1 (racemic) [Example 471, (±)-{[5-chloro-7-(2,5-dichlorophenyl)-2,3-dihydro-1-benzofuran-2-yl]methyl}methylamine]	90	14	–
CNCC1Cc2cc(Cl)cc(-c3cc(Cl)ccc3OC)c2O1 (racemic) [Example 472, (±)-{[5-chloro-7-(5-chloro-2-methoxyphenyl)-2,3-dihydro-1-benzofuran-2-yl]methyl}methylamine]	80	353	–
COc1cccc(-c2cc(F)cc3c2OC(CN)C3)c1OC (single isomer, unassigned; (+)) [Example 214, (+)-{[7-(2,3-dimethoxyphenyl)-5-fluoro-2,3-dihydro-1-benzofuran-2-yl]methyl}amine]	–	79	70
Cc1cccc(C)c1-c1cc(F)cc2c1OC(CN)C2 (single isomer, unassigned; (+)) [Example 228, (+)-{[7-(2,6-dimethylphenyl)-5-fluoro-2,3-dihydro-1-benzofuran-2-yl]methyl}amine]	–	313	70
Cc1cccc(C)c1-c1cc(Cl)cc2c1OC(CN)C2 (single isomer, unassigned; (+)) [Example 262, (+)-{[5-chloro-7-(2,6-dimethylphenyl)-2,3-dihydro-1-benzofuran-2-yl]methyl}amine]	–	471	70
COc1cccc(-c2cc(C)cc3c2OC(CN)C3)c1OC (single isomer, unassigned; (+)) [Example 296, (+)-{[7-(2,3-dimethoxyphenyl)-5-methyl-2,3-dihydro-1-benzofuran-2-yl]methyl}amine]	–	50	80
CNCC1Cc2cccc(-c3c(Cl)cccc3Cl)c2O1 (single isomer, unassigned; (+)) [Example 435, (+)-{[7-(2,6-dichlorophenyl)-2,3-dihydro-1-benzofuran-2-yl]methyl}methylamine]	–	82	80
CNCC1Cc2cc(F)cc(-c3ccc(Cl)cc3Cl)c2O1 (single isomer, unassigned; (+)) [Example 447]	–	3	90
CNCC1Cc2cc(F)cc(-c3c(Cl)cccc3Cl)c2O1 (single isomer, unassigned; (+)) [Example 543, (+){[7-(2,6-dichlorophenyl)-5-fluoro-2,3-dihydro-1-benzofuran-2-yl]methyl}methylamine]	–	0.2	100
CNCC1Cc2cc(F)cc(-c3c(C)cccc3C)c2O1 (single isomer, unassigned; (+)) [Example 558, (+)-{[7-(2,6-dimethylphenyl)-5-fluoro-2,3-dihydro-1-benzofuran-2-yl]methyl}methylamine]	70	265	–
CNCC1Cc2cc(Cl)cc(-c3c(C)cccc3C)c2O1 (single isomer, unassigned; (+)) [Example 565, (+)-{[5-chloro-7-(2,6-dimethylphenyl)-2,3-dihydro-1-benzofuran-2-yl]methyl}methylamine]	–	287	70
CNCC1Cc2cc(C)cc(-c3cccc(OC)c3OC)c2O1 (single isomer, unassigned; (+)) [Example 566, (+)-{[7-(2,3-dimethoxyphenyl)-5-methyl-2,3-dihydro-1-benzofuran-2-yl]methyl}methylamine]	70	3	–
CNCC1Cc2cc(F)cc(-c3cccc(OC)c3OC)c2O1 (single isomer, unassigned; (+)) [Example 569, (+)-{[7-(2,3-dimethoxyphenyl)-5-fluoro-2,3-dihydro-1-benzofuran-2-yl]methyl}methylamine]	–	6	60
COc1cccc(-c2cc(F)cc3c2OC(CN)C3)c1OC (single isomer, unassigned; (-)) [Example 213, (−)-{[7-(2,3-dimethoxyphenyl)-5-fluoro-2,3-dihydro-1-benzofuran-2-yl]methyl}amine]	–	9	100
